Assay results: PubChem BioAssay AID2060896 (Molecular Pharmacology Branch, DTP, NCI, 2025)

Tested on: 941728-121-R-J1-PDC complex spheroid viability
Assay: Anticancer human tumor 941728-121-R-J1-PDC patient-derived lung adenocarcinoma cell line growth inhibition [RAS]
Conditions: for IC50: curve of first compound; for viability, T/C: stronger effect = lower value
Procedure, shortened: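 Multi-cell-type spheroids: tumor cells plus HUVEC endothelial cells and mesenchymal stem cells. RAS-pathway inhibitors were combined with targeted agents, each dosed in half-log steps down from clinical Cmax, or from 10 microM when Cmax was unknown.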
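Also: spheroids exposed to compounds for 7 days before readout.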
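For viability, T/C in this document: 100% = DMSO vehicle control viability.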

CC(C)n1nc(-c2ccc3oc(N)nc3c2)c2c(N)ncnc21 + C=CC(=O)N1CCN(c2nc(OCC3CCCN3C)nc3c(F)c(-c4nc(N)cc(C)c4C(F)(F)F)c(Cl)cc23)C(C)C1
IC50 (second compound 0.00316 µM): < 0.316 nM | IC50 (second compound 0.01 µM): < 0.316 nM | IC50 (second compound 0.0316 µM): < 0.316 nM | IC50 (second compound 0.1 µM): < 0.316 nM | IC50 (second compound 0.316 µM): < 0.316 nM | IC50 (second compound 1 µM): < 0.316 nM | viability, T/C (second compound 0.00316 µM, first compound 0.000316 µM): 19.5% | viability, T/C (second compound 0.00316 µM, first compound 0.001 µM): 21.4% | viability, T/C (second compound 0.00316 µM, first compound 0.00316 µM): 19.4% | viability, T/C (second compound 0.00316 µM, first compound 0.01 µM): 14.4% | viability, T/C (second compound 0.00316 µM, first compound 0.0316 µM): 11.6% | viability, T/C (second compound 0.00316 µM, first compound 0.1 µM): 9.02% | viability, T/C (second compound 0.01 µM, first compound 0.000316 µM): 19.6% | viability, T/C (second compound 0.01 µM, first compound 0.001 µM): 21.8% | viability, T/C (second compound 0.01 µM, first compound 0.00316 µM): 17.9% | viability, T/C (second compound 0.01 µM, first compound 0.01 µM): 14.4% | viability, T/C (second compound 0.01 µM, first compound 0.0316 µM): 10.7% | viability, T/C (second compound 0.01 µM, first compound 0.1 µM): 6.76% | viability, T/C (second compound 0.0316 µM, first compound 0.000316 µM): 22.7% | viability, T/C (second compound 0.0316 µM, first compound 0.001 µM): 17.5% | viability, T/C (second compound 0.0316 µM, first compound 0.00316 µM): 19.2% | viability, T/C (second compound 0.0316 µM, first compound 0.01 µM): 14.4% | viability, T/C (second compound 0.0316 µM, first compound 0.0316 µM): 10.2% | viability, T/C (second compound 0.0316 µM, first compound 0.1 µM): 7.17% | viability, T/C (second compound 0.1 µM, first compound 0.000316 µM): 22.1% | viability, T/C (second compound 0.1 µM, first compound 0.001 µM): 18.2% | viability, T/C (second compound 0.1 µM, first compound 0.00316 µM): 19.4% | viability, T/C (second compound 0.1 µM, first compound 0.01 µM): 11.9% | viability, T/C (second compound 0.1 µM, first compound 0.0316 µM): 10.1% | viability, T/C (second compound 0.1 µM, first compound 0.1 µM): 7.39% | viability, T/C (second compound 0.316 µM, first compound 0.000316 µM): 19.4% | viability, T/C (second compound 0.316 µM, first compound 0.001 µM): 18% | viability, T/C (second compound 0.316 µM, first compound 0.00316 µM): 17.8% | viability, T/C (second compound 0.316 µM, first compound 0.01 µM): 14.7% | viability, T/C (second compound 0.316 µM, first compound 0.0316 µM): 9.18% | viability, T/C (second compound 0.316 µM, first compound 0.1 µM): 8.16% | viability, T/C (second compound 1 µM, first compound 0.000316 µM): 19.5% | viability, T/C (second compound 1 µM, first compound 0.001 µM): 22.9% | viability, T/C (second compound 1 µM, first compound 0.00316 µM): 16.6% | viability, T/C (second compound 1 µM, first compound 0.01 µM): 13.4% | viability, T/C (second compound 1 µM, first compound 0.0316 µM): 11.6% | viability, T/C (second compound 1 µM, first compound 0.1 µM): 8.02%
